According to article PMC10275983 (Nature Communications, 2023):

Columns and labels:
[1] = system: SARS-CoV-2/human/Liverpool/REMRQ0001/2020; type: in vivo
SARS-CoV-2 = settings: combined with ritonavir; initiated within three days of symptom onset; interim results of Phase II-III studies; cited from earlier work
Text: Small molecule antivirals offer potential advantages over antibody therapeutics. […] During the early months of the pandemic, huge multinational effort was initiated to repurpose already approved antiviral or immunosuppressive drugs. One such drug was remdesivir, a nucleoside analog chain terminator that blocks replication of viral RNA[17].

| Compound | inflammatory markers (cytokine and chemokine transcripts) in lung and nasal turbinate ([1]; K18 hACE2 mice N=4, day 4 post-infection, same dosing, qPCR) | infectious virus in the lungs (plaque assay on lung homogenate) ([1]; mouse, in vivo) | viral RNA levels in nasal turbinates (qPCR, sub-genomic E gene) ([1]; mouse, in vivo) | reduced hospitalization risk (SARS-CoV-2) |
| --- | --- | --- | --- | --- |
| CCC(CC)COC(=O)[C@H](C)N[P@](=O)(OC[C@H]1O[C@@](C#N)(c2ccc3c(N)ncnn23)[C@H](O)[C@@H]1O)Oc1ccccc1 [remdesivir] | remained substantially elevated | only partially decreased viraemia | no significant impact | – |
| CC(C)(C)[C@H](NC(=O)C(F)(F)F)C(=O)N1C[C@H]2[C@@H]([C@H]1C(=O)N[C@H](C#N)C[C@@H]1CCNC1=O)C2(C)C [nirmatrelvir] | – | – | – | 89% |
